Assay results as given in ChEMBL document CHEMBL1157284, “Role of glutamate and dopamine receptors in the psychopharmacological profile of the indole alkaloid psychollatine” (2006).
Active and inactive are the calls of the source. No cut-off for these calls is given here.

Columns and labels:
[1] = system: Mus musculus; assay: Protective effect against amphetamine-induced lethality in mouse at 4 mg/kg, ip administered 30 mins prior to amphetamine challenge measured after 24 hrs; format: functional, organism-based; design: dose 4 mg/kg
[2] = system: Mus musculus; assay: Anticonvulsant activity against NMDA-induced seizures in mouse assessed as seizure latency at 0.3 mg/kg, ip administered 30 mins prior to NMDA challenge; format: functional; conditions: route intraperitoneal
[3] = system: Mus musculus; assay: Inhibition of apomorphine-induced climbing behavior in mouse at 0.2 mg/kg, ip administered 30 mins prior to apomorphine challenge; format: functional, organism-based; design: dose 0.2 mg/kg
[4] = system: Mus musculus; assay: Anticonvulsant activity against NMDA-induced seizures in mouse assessed as seizure latency at 50 mg/kg, ip administered 30 mins prior to NMDA challenge; format: functional; conditions: route intraperitoneal
[5] = system: Mus musculus; assay: Anticonvulsant activity against NMDA-induced seizures in mouse assessed as seizure latency at 75 mg/kg, ip administered 30 mins prior to NMDA challenge; format: functional; conditions: route intraperitoneal
[6] = system: Mus musculus; assay: Anticonvulsant activity against NMDA-induced seizures in mouse assessed as seizure latency at 100 mg/kg, ip administered 30 mins prior to NMDA challenge; format: functional; conditions: route intraperitoneal
[7] = system: Mus musculus; assay: Antipsychotic activity against MK-801-induced hyperlocomotion in mouse at 7.5 mg/kg administered 30 mins prior to MK-801 challenge measured after 30 mins; format: functional, organism-based; design: dose 7.5 mg/kg
[8] = system: Mus musculus; assay: Antipsychotic activity against MK-801-induced hyperlocomotion in mouse at 10 mg/kg administered 30 mins prior to MK-801 challenge measured after 30 mins; format: functional, organism-based; design: dose 10 mg/kg
[9] = system: Mus musculus; assay: Antipsychotic activity against MK-801-induced hyperlocomotion in mouse at 100 mg/kg administered 30 mins prior to MK-801 challenge measured after 30 mins; format: functional, organism-based; design: dose 100 mg/kg
[10] = system: Mus musculus; assay: Decrease in spontaneous locomotor activity in mouse at 7.5 mg/kg; format: functional, organism-based; design: dose 7.5 mg/kg
[11] = system: Mus musculus; assay: Decrease in spontaneous locomotor activity in mouse at 10 mg/kg; format: functional, organism-based; design: dose 10 mg/kg
[12] = system: Mus musculus; assay: Decrease in spontaneous locomotor activity in mouse at 100 mg/kg; format: functional, organism-based; design: dose 100 mg/kg
[13] = system: Mus musculus; assay: Protective effect against amphetamine-induced lethality in mouse at 3 mg/kg, ip administered 30 mins prior to amphetamine challenge measured after 24 hrs; format: functional, organism-based; design: dose 3 mg/kg
[14] = system: Mus musculus; assay: Protective effect against amphetamine-induced lethality in mouse at 10 mg/kg, ip administered 30 mins prior to amphetamine challenge measured after 24 hrs; format: functional, organism-based; design: dose 10 mg/kg
[15] = system: Mus musculus; assay: Protective effect against amphetamine-induced lethality in mouse at 30 mg/kg, ip administered 30 mins prior to amphetamine challenge measured after 24 hrs; format: functional, organism-based; design: dose 30 mg/kg
[16] = system: Mus musculus; assay: Protective effect against amphetamine-induced lethality in mouse at 100 mg/kg, ip administered 30 mins prior to amphetamine challenge measured after 24 hrs; format: functional, organism-based; design: dose 100 mg/kg
[17] = system: Mus musculus; assay: Inhibition of apomorphine-induced climbing behavior in mouse at 10 mg/kg, ip administered 30 mins prior to apomorphine challenge; format: functional, organism-based; design: dose 10 mg/kg

CN(C)CCCN1c2ccccc2Sc2ccc(Cl)cc21
Activity [1]: Active

CN1C(=O)CN=C(c2ccccc2)c2cc(Cl)ccc21
Activity [1]: inactive

C[C@]12N[C@H](Cc3ccccc31)c1ccccc12.O=C(O)/C=C\C(=O)O [DIZOCILPINE MALEATE]
Activity [2]: 360 s | Activity [3]: Active

COC(=O)C1=CO[C@@H](O[C@H]2O[C@H](CO)[C@@H](O)[C@H](O)[C@H]2O)[C@@H]2C([C@@H]3NCCc4c3[nH]c3ccccc43)=CC[C@H]12 [PSYCHOLLATINE]
Activity [4]: 850 s | Activity [5]: 1020 s | Activity [6]: 857.14 s | Activity [7]: Active | Activity [8]: Active | Activity [9]: Active | Activity [10]: inactive | Activity [11]: inactive | Activity [12]: Active | Activity [13]: Active | Activity [14]: Active | Activity [15]: inactive | Activity [16]: inactive | Activity [17]: Active
